# Measurements: patent publication US20250162973A1, “METHODS OF SYNTHESIS AND USES OF AGRIMOL COMPOUNDS” (Versitech Limited, priority 2022, published 2025)
# Columns and labels:
# [1] = system: patient-derived organoids (PDOs) from a lung cancer patient's metastatic tumor; assay: Patient-derived organoid viability (CellTiter Glo); format: cell-based, human; set-up: viability of PDO: dose or concentration left out as unconfirmed; conditions: 72 h
# Description: FIG. 1A is a bar graph showing the IC50 values of AGB against indicated cell lines. Cells were treated with AGB at various concentrations for 48 h and processed for MTT assay. The IC50 values were half maximal inhibitory concentration that determined by the fitting curve using the equation from GraphPad Prism 8. FIG. 1B is a bar graph showing the inhibition of colony formation on NCI-H460 cells by AGB. Cells were treated with indicated concentrations of AGB for 8 h. Medium with AGB was then aspirated and cells were re-seeded into a new 12-well cell culture plate. After 14 days, cells were fixed by ethanol followed by staining using crystal violet. Colony numbers were counted and normalized to vehicle control group. Colonies with more than 50 cells were considered. **, p<0.01; ***, p<0.001. […] The numbers of formed tumorsphere were calculated and normalized to the control group of primary passage. […] FIG. 1E is a graph showing the cell viability of CSCs determined by MTT assay. The absorbance of each well was normalized to control wells and data were shown as percentage of cell viabilities. […]
# To better simulate the physiological structure and function of in situ tissue, the effect of AGB on the growth of patient-derived organoids (PDOs) isolated from a lung cancer patient's metastatic tumor was evaluated.
# [2] = Safety in xenograft mice (body weight, H&E staining); format: in vivo
# Description: In vivo anticancer efficacy of AGB was evaluated using the human tumor xenograft model, in which human cancer cells were inoculated into immune-deficiency mice. Briefly, twelve six-week-old (16-18 g) BALB/c nude mice were randomly divided into two groups and both received subcutaneous injection of NCI-H460 cells (2 million cells in 0.1 mL PBS) at its right flank of mice and tumor became palpable after three days of injection. Mice were received intravenous (i.v.) injections of AGB or vehicle control (10% DMSO and 0.05% Tween 80 in normal saline) every two days in two weeks. The length and width of tumor were measured by Vernier caliper and the body weight was monitored every two or three days. At the end of experiment, mice were sacrificed and decapitated. The liver, kidney, and tumor were collected and fixed in 4% formaldehyde for further haematoxylin and eosin (H&E) staining. All animal experiments in this project received human care and study protocols complied with the guidelines of the Laboratory Animal Services Centre of the University of Hong Kong. Tumor sizes and body weight were recorded before the drug injection every time and tumor volume (V) was calculated by the formula V=LW^2/2, where L is tumor length and W is tumor width. The relative tumor volume that normalized to day 0 was used to monitor the tumor growth. Data in each group was shown as mean±standard deviation.
# The in vivo antitumor potential of AGB using the xenograft mouse model was assessed. Two different cancer cells (NCI-H460 and A549) were inoculated subcutaneously into the nude mice. Non-obese diabetic severe combined immunodeficient (NOD/SCID) mice were used for stem-like NCI-H460 cells. The mice were then treated by tail intravenous injection with vehicle or AGB (3 mg/kg). […] To further evaluate the safety of AGB, hematoxylin-eosin (H&E) staining of the kidney, liver, and tumor samples were performed (FIG. 1K). The necrotic area (circled by dashed line) in the tumor tissue from mice treated with AGB was much larger than that in vehicle group.
# [3] = Maximum tolerated dose (MTD) determination, general toxicity and body weight; format: in vivo
# Description: The MTD test in this study was done in collaboration with Tianjin Institute of Pharmaceutical Research (TIPR). […] A total of 80 mice were randomly assigned into four groups (10 male and 10 female mice in each group) in this study. Four groups included 16.0 mg/kg of AGB group, 12.8 mg/kg of AGB group, vehicle control group (10% DMSO+0.8% Tween-80 in normal saline), and the blank control group (normal saline).
# Then, the body weights of surviving animals were measured on the 1st, 3rd, 7th and 14th days, respectively. At the end of experiment, the hematology, blood biochemistry, anatomical examination, and histopathology examination were performed in both vehicle control group and the MTD group (12.8 mg/kg). The data were presented as the mean±standard deviation.
# [4] = 16.0 mg/kg, about 1 hour after administration
smiles,measurement,setting,value
"CCCC(=O)c1c(O)c(Cc2c(O)c(Cc3c(O)c(C)c(OC)c(C(=O)CCC)c3O)c(O)c(C(=O)[C@@H](C)CC)c2O)c(O)c(C)c1OC [AGB, Agrimol B]",viability of PDO,"[1]; AGB, concentration dependent",Significant inhibition of viability
same,maximal viability loss,[1]; PDO,over 99%
same,observable toxicity (body weight of mice),[2]; 3 mg/kg of AGB,did not show any observable toxicity
same,liver and kidney histology (H&E),[2]; after treatment with AGB,did not show any obvious change
same,necrotic area in the tumor tissue vs vehicle group (H&E),[2]; mice treated with AGB,much larger
same,body weight of female mice,"[3]; 12.8 mg/kg, d 0, mean ± SD",20.52 ± 1.00 g
same,body weight of male mice,"[3]; 12.8 mg/kg, d 0, mean ± SD",21.16 ± 1.07 g
same,body weight of female mice,"[3]; 12.8 mg/kg, d 1, mean ± SD",20.60 ± 1.18 g
same,body weight of male mice,"[3]; 12.8 mg/kg, d 1, mean ± SD",21.27 ± 1.46 g
same,body weight of female mice,"[3]; 12.8 mg/kg, d 3, mean ± SD",21.14 ± 0.99 g
same,body weight of male mice,"[3]; 12.8 mg/kg, d 3, mean ± SD",21.89 ± 1.51 g
same,body weight of female mice,"[3]; 12.8 mg/kg, d 7, mean ± SD",23.68 ± 1.83 g
same,body weight of male mice,"[3]; 12.8 mg/kg, d 7, mean ± SD",25.64 ± 1.54 g
same,body weight of female mice,"[3]; 12.8 mg/kg, d 14, mean ± SD",26.38 ± 1.63 g
same,body weight of male mice,"[3]; 12.8 mg/kg, d 14, mean ± SD",31.60 ± 2.37 g
same,symptoms of toxic reactions,"[3]; 12.8 mg/kg, day of dosing and recovery period",No symptoms of toxic reactions were observed
same,animals with reduced activities,"[3]; 16.0 mg/kg, about 30 minutes after administration",13/20
same,mice appearing prone,[3]; [4],3/20
same,mice with ptosis,[3]; [4],1/20
same,body weight of female mice,"[3]; 16.0 mg/kg, d 0, mean ± SD",20.57 ± 0.90 g
same,body weight of male mice,"[3]; 16.0 mg/kg, d 0, mean ± SD",21.24 ± 0.58 g
same,body weight of female mice,"[3]; 16.0 mg/kg, d 1, mean ± SD",18.76 ± 0.89 g
same,body weight of male mice,"[3]; 16.0 mg/kg, d 1, mean ± SD",19.64 ± 1.15 g
same,body weight of female mice,"[3]; 16.0 mg/kg, d 3, mean ± SD",19.61 ± 1.50 g
same,body weight of male mice,"[3]; 16.0 mg/kg, d 3, mean ± SD",20.04 ± 1.42 g
same,body weight of female mice,"[3]; 16.0 mg/kg, d 7, mean ± SD",22.76 ± 1.26 g
same,body weight of male mice,"[3]; 16.0 mg/kg, d 7, mean ± SD",24.25 ± 1.48 g
same,body weight of female mice,"[3]; 16.0 mg/kg, d 14, mean ± SD",25.61 ± 0.87 g
same,body weight of male mice,"[3]; 16.0 mg/kg, d 14, mean ± SD",31.48 ± 1.73 g
same,MTD at 14 day,"[3]; both sexes, mouse, in vivo, iv, single i.v. injection, ICR mice",12.8 mg/kg
